{
  "source": "patent US20140308733A1",
  "about": "“METHOD FOR INDUCING GERMINATION OF SPORE FORMING BACTERIUM” (CALPIS CO., LTD., priority 2011, published 2014)",
  "key": {"[1]": {"tested_on": "Bacillus subtilis C-3102 (FERM BP-1096)", "test": "Influence of the concentration of germination inducer on turbidity change (Example 2)", "assay_type": "cell-based", "settings": "for turbidity (630 nm): 37° C., 150 rpm", "method": "Next, 500 μL aliquots of bacterial suspension of Bacillus subtilis C-3102 (FERM BP-1096) used in Example 1 were mixed with 500 μL of ferulic acid, or vanillic acid solutions described above, and the mixtures were adjusted to ferulic acid (10 to 600 ppm), or vanillic acid (10 to 1800 ppm) concentrations set forth in Table 2. The concentrations of ferulic acid at the reaction initiation were 10, 100, 300, and 600 ppm, and the concentrations of vanillic acid at the reaction initiation were 10, 100, 300, 600, 1200, and 1800 ppm.\nAs same as Example 1, defining the time point of mixing the bacterial suspension with the solution of ferulic acid, or vanillic acid as the reaction initiation (0 min), and continuing shaking (150 rpm) at 37° C., the absorbance (630 nm) was measured at 10, 20, 30, 40, 50, 60, 90, 120, and 180 min after the reaction initiation."}, "[2]": {"tested_on": "C-3102 strain", "test": "Long time culture of spore suspension with inducer, turbidity up to 24 hours (proliferation check, Example 4)", "assay_type": "cell-based, Bacillus subtilis", "settings": "500 μL spore suspension + 500 μL of 600 ppm solution", "method": "This Example is an experiment to examine whether proliferation is recognizable or not, when ferulic acid or vanillic acid is mixed with a spore suspension of the C-3102 strain and cultured for a long time period.\nThe C-3102 strain was cultured on a nutrient plate at 37° C. for 3 days, and thereafter bacterial cells were collected by a bacteria spreader and a spore suspension was prepared similarly as in Example 1 (OD 630=1.0). After mixing 500 μL of the C-3102 spore suspension with 500 μL of a 600 ppm-ferulic acid solution, or a 600 ppm-vanillic acid solution, change in the turbidity (630 nm) up to 24 hours was examined."}},
  "data": [
    {"smiles": "COc1cc(/C=C/C(=O)O)ccc1O", "note": "[Ferulic acid, ferulic acid]", "values": [
      {"measurement": "turbidity (630 nm)", "setting": "[1]; ferulic acid 10 ppm, 0 min after reaction initiation", "result": 0.584},
      {"measurement": "turbidity (630 nm)", "setting": "[1]; ferulic acid 10 ppm, 10 min after reaction initiation", "result": 0.563},
      {"measurement": "turbidity (630 nm)", "setting": "[1]; ferulic acid 10 ppm, 20 min after reaction initiation", "result": 0.553},
      {"measurement": "turbidity (630 nm)", "setting": "[1]; ferulic acid 10 ppm, 30 min after reaction initiation", "result": 0.544},
      {"measurement": "turbidity (630 nm)", "setting": "[1]; ferulic acid 10 ppm, 40 min after reaction initiation", "result": 0.533},
      {"measurement": "turbidity (630 nm)", "setting": "[1]; ferulic acid 10 ppm, 50 min after reaction initiation", "result": 0.519},
      {"measurement": "turbidity (630 nm)", "setting": "[1]; ferulic acid 10 ppm, 60 min after reaction initiation", "result": 0.507},
      {"measurement": "turbidity (630 nm)", "setting": "[1]; ferulic acid 10 ppm, 90 min after reaction initiation", "result": 0.488},
      {"measurement": "turbidity (630 nm)", "setting": "[1]; ferulic acid 10 ppm, 120 min after reaction initiation", "result": 0.447},
      {"measurement": "turbidity (630 nm)", "setting": "[1]; ferulic acid 10 ppm, 180 min after reaction initiation", "result": 0.353},
      {"measurement": "turbidity (630 nm)", "setting": "[1]; ferulic acid 100 ppm, 0 min after reaction initiation", "result": 0.583},
      {"measurement": "turbidity (630 nm)", "setting": "[1]; ferulic acid 100 ppm, 10 min after reaction initiation", "result": 0.565},
      {"measurement": "turbidity (630 nm)", "setting": "[1]; ferulic acid 100 ppm, 20 min after reaction initiation", "result": 0.556},
      {"measurement": "turbidity (630 nm)", "setting": "[1]; ferulic acid 100 ppm, 30 min after reaction initiation", "result": 0.53},
      {"measurement": "turbidity (630 nm)", "setting": "[1]; ferulic acid 100 ppm, 40 min after reaction initiation", "result": 0.52},
      {"measurement": "turbidity (630 nm)", "setting": "[1]; ferulic acid 100 ppm, 50 min after reaction initiation", "result": 0.500},
      {"measurement": "turbidity (630 nm)", "setting": "[1]; ferulic acid 100 ppm, 60 min after reaction initiation", "result": 0.484},
      {"measurement": "turbidity (630 nm)", "setting": "[1]; ferulic acid 100 ppm, 90 min after reaction initiation", "result": 0.448},
      {"measurement": "turbidity (630 nm)", "setting": "[1]; ferulic acid 100 ppm, 120 min after reaction initiation", "result": 0.383},
      {"measurement": "turbidity (630 nm)", "setting": "[1]; ferulic acid 100 ppm, 180 min after reaction initiation", "result": 0.247},
      {"measurement": "turbidity (630 nm)", "setting": "[1]; ferulic acid 300 ppm, 0 min after reaction initiation", "result": 0.579},
      {"measurement": "turbidity (630 nm)", "setting": "[1]; ferulic acid 300 ppm, 10 min after reaction initiation", "result": 0.56},
      {"measurement": "turbidity (630 nm)", "setting": "[1]; ferulic acid 300 ppm, 20 min after reaction initiation", "result": 0.547},
      {"measurement": "turbidity (630 nm)", "setting": "[1]; ferulic acid 300 ppm, 30 min after reaction initiation", "result": 0.530},
      {"measurement": "turbidity (630 nm)", "setting": "[1]; ferulic acid 300 ppm, 40 min after reaction initiation", "result": 0.520},
      {"measurement": "turbidity (630 nm)", "setting": "[1]; ferulic acid 300 ppm, 50 min after reaction initiation", "result": 0.499},
      {"measurement": "turbidity (630 nm)", "setting": "[1]; ferulic acid 300 ppm, 60 min after reaction initiation", "result": 0.466},
      {"measurement": "turbidity (630 nm)", "setting": "[1]; ferulic acid 300 ppm, 90 min after reaction initiation", "result": 0.422},
      {"measurement": "turbidity (630 nm)", "setting": "[1]; ferulic acid 300 ppm, 120 min after reaction initiation", "result": 0.354},
      {"measurement": "turbidity (630 nm)", "setting": "[1]; ferulic acid 300 ppm, 180 min after reaction initiation", "result": 0.22},
      {"measurement": "turbidity (630 nm)", "setting": "[1]; ferulic acid 600 ppm, 0 min after reaction initiation", "result": 0.586},
      {"measurement": "turbidity (630 nm)", "setting": "[1]; ferulic acid 600 ppm, 10 min after reaction initiation", "result": 0.552},
      {"measurement": "turbidity (630 nm)", "setting": "[1]; ferulic acid 600 ppm, 20 min after reaction initiation", "result": 0.545},
      {"measurement": "turbidity (630 nm)", "setting": "[1]; ferulic acid 600 ppm, 30 min after reaction initiation", "result": 0.526},
      {"measurement": "turbidity (630 nm)", "setting": "[1]; ferulic acid 600 ppm, 40 min after reaction initiation", "result": 0.515},
      {"measurement": "turbidity (630 nm)", "setting": "[1]; ferulic acid 600 ppm, 50 min after reaction initiation", "result": 0.506},
      {"measurement": "turbidity (630 nm)", "setting": "[1]; ferulic acid 600 ppm, 60 min after reaction initiation", "result": 0.477},
      {"measurement": "turbidity (630 nm)", "setting": "[1]; ferulic acid 600 ppm, 90 min after reaction initiation", "result": 0.447},
      {"measurement": "turbidity (630 nm)", "setting": "[1]; ferulic acid 600 ppm, 120 min after reaction initiation", "result": 0.379},
      {"measurement": "turbidity (630 nm)", "setting": "[1]; ferulic acid 600 ppm, 180 min after reaction initiation", "result": 0.246},
      {"measurement": "germination induction versus concentration", "setting": "[1]; ferulic acid of 10 to 600 ppm", "result": "germination was inducted at any concentration to the same extent"},
      {"measurement": "turbidity (630 nm)", "setting": "[2]; reaction time 0 hr", "result": 0.574},
      {"measurement": "turbidity (630 nm)", "setting": "[2]; reaction time 0.5 hr", "result": 0.543},
      {"measurement": "turbidity (630 nm)", "setting": "[2]; reaction time 1 hr", "result": 0.502},
      {"measurement": "turbidity (630 nm)", "setting": "[2]; reaction time 1.5 hr", "result": 0.464},
      {"measurement": "turbidity (630 nm)", "setting": "[2]; reaction time 2 hr", "result": 0.425},
      {"measurement": "turbidity (630 nm)", "setting": "[2]; reaction time 3 hr", "result": 0.370},
      {"measurement": "turbidity (630 nm)", "setting": "[2]; reaction time 24 hr", "result": 0.178}
    ]}
  ]
}
